Key:
[1] = test system: blood pressure in the hypertensive rat; assay: Effects on systolic blood pressure in the hypertensive rat; type: in vivo; parameters: key: 0: Not significant at any time interval; 1: Significant at one time interval; 2: Significant at two time intervals; conditions: 1 mg/kg intraperitoneal; 2, 4, 6 and 9 hours
Procedure: The acute anithypertensive activity of test compounds was determined in rats made hypertensive by the procedure of Grollman (Proc. Soc. Exper Biol. Med., 57: 102 [1944]). Female rats weighing between 60 and 100 g were anesthetized with ether, the right kidney approached through a flank retroperitoneal incision, decapsulated and tied with a figure-of-eight-ligature. The animals were left to recover and two weeks later were again anesthetized and the contralateral kidney removed. Four weeks after the second operation the rats were subjected to indirect blood pressure measurements and those showing systolic pressure values greater than 160 mmHg were selected for drug testing.
Blood pressure was measured in the tail with an inflatable occluding cuff placed at the base of the extremity and a pulse detector located distally. The cuff was inflated to approximately 300 mmHg and was slowly deflated until pulsations appeared, indicating the level of systolic pressure; diastolic pressure was not recorded by this procedure. All measurements were carried out in unanesthetized, unsedated animals maintained in a warm environment during the recording procedure and for at least 6 hours before. In all cases, three pressure readings were obtained in succession and mean values were calculated thereof.
Experiments were carried out in groups of five hypertensive rats in which systolic pressure was determined immediately before and 2, 4, 6 and 9 hours after intraperiotoneal administration of the test compound at a dose of 1 mg/kg. Drugs were diluted from stock solutions with phosphate buffer (Lee et. al., Prostaglandins, 29 [1973]), so as to inject this quantity in a volume of 1 ml/kg. Changes from control blood pressure values were calculated for each interval both in mmHg and in percent, and evaluated for significance by means of Wilcoxon's signed rank test (Wilcoxon, R. and Wilcox, R. A., "Some Rapid Approximate Statistical Procedures," Lederle Laboratories, Pearl River [1964]).

guinea pig trachea = assay: Effects on the guinea pig trachea in vitro; type: cell-based; conditions: comparison in words
Procedure: A male guinea pig weighing 200-500 g was killed by a blow on the head. A 20 mm length of the trachea was dissected from the animal, transferred to a petri dish containing Krebs' solution (aerated with 95% O2 and 5% CO2 at 37° C.), and cut longitudinally opposite the tracheal muscle. The tissue was then cut transversely three quarters of the distance across, a second cut in the opposite direction (again three quarters of the distance across the tissue) was made and the procedure was continued for the whole tissue. The ends of the trachea were pulled to form a zig-zig shaped strip. The tracheal strip used in the experiment was approximately 30 mm when extended under 0.25-0.5 g load in the tissue bath. Cotton thread was tied to one end of the tissue, and linen thread to the other. It was attached via the linen thread to a glass hook in a 5 ml isolated tissue bath containing Krebs' solution (37° C., aerated with a mixture of 95% O2 and 5% CO2). The opposite end was attached via cotton to an isotonic Harvard transducer (Model 386 Heart/Smooth Muscle Transducer, Harvard Apparatus). The load on the transducer lever was small, usually 0.3 g, with a range of 0.25-0.5 g, and the magnification high, 80 fold using an appropriate twin-channel pen recorder. A minimum of thirty minutes was allowed before applying a test compound to the tissue. Test compounds were then applied (in volumes of 0.5 ml) at thirty minute intervals, being in contact with the tissue for five minutes followed by an overflow washout time of twenty seconds.
Prostaglandin E1, at a bath concentration of 0.1 mcg/ml, was then tested repeatedly on two such strips, obtained from two different animals, until two responses (the values of which are recorded) differing by no more than 25% occur. A test compound was then added to the same two strips at bath concentrations of 0.01, 0.1, 1.0, and 10.0 mcg/ml and the effects of the compound were recorded. After the test compound had been evaluated at the highest concentration, PGE1 was retested at 0.1 mcg/ml (and the value of the response recorded) to insure that the viability of the strips was retained during the experiment. The mean of the effects of the test compound on the two strips was then calculated for each concentration, and, biased on the resulting values, an activity value was assigned as follows: […]

[2] = test system: gastric secretion in the rat; assay: Effects on gastric secretion in the rat; type: in vivo; conditions: for GAS value, carbinol versus methyl ester analogue: comparison in words
Procedure: A procedure based on that described by Lipman, W. (J. Pharm. Pharmacol., 21: 335 [1968]) was used to assess the influence of test compounds on gastric secretion. Rats of one sex weighing 150 to 200 g were randomly divided into groups of six animals each and fasted for 48 hours previous to the experiments, water being available ad libitum. The animals were anesthetized with ether, the abdomen opened through a midline incision, and the pylorus ligated. Test compounds were diluted from stock solution so as to administer a dose of 1.5 mg/kg in a volume equivalent to 1 ml/kg. Subcutaneous injections were applied immediately after surgery and again 2 hours later, so that a total dose of 3.0 mg/kg was administered. Dilutions were made with phosphate buffer (pH 7.38) as recommended by Lee et al. (Prostaglandins, 3: 29 [1973]) in order to insure adequate stability of drugs at the subcutaneous depot. Each compound was tested in one group of rats; an additional control group received only the vehicle.
Four hours after pyllric ligation the animals were killed with ether, the cardias ligated, and the stomachs removed. The volume of gastric secretion was measured and the contents centrifuged at 5000 rpm for 10 minutes. Total acid in the supernatant was titrated against a 0.1 N sodium hydroxide solution and the amount expressed in mEq.
Volume and total acid values of the treated group were compared with those of the controls […]. Antisecretory activity was scored according to the following scale: […]

Row | SMILES | Blood Pressure Hypertensive Rat: activity value [1] | Guinea pig trachea value, carbinol versus methyl ester analogue (guinea pig trachea) | GAS value, carbinol versus methyl ester analogue [2] | GAS activity ([2]; result in words)
1 | O=C1C[C@@H](O)[C@H](/C=C/CC2(O)CCCCC2)[C@H]1CCCCCCCO [TR 4703, 16, 20-Methano-1, 11α, 16-trihydroxyprost-13E-en-9-one] | 0 | – | – | –
2 | CCCCC(O)C/C=C/[C@H]1[C@H](O)CC(=O)[C@@H]1CCCCCCCO (stereo partly drawn) [TR 4706, 1,11α,16RS-trihydroxyprost-13E-en-9-one] | 0 | the same | the same | –
3 | COC(=O)CCCCCC[C@H]1C(=O)C[C@@H](O)[C@@H]1/C=C/CC1(O)CCCCC1 [TR 4717, Methyl 11α, 16RS-dihydroxy-16, 20-methano-9-oxoprost-13E-en-1-oate] | 0 | – | – | –
4 | COC(=O)CCCCCC[C@H]1C(=O)C[C@@H](O)[C@@H]1/C=C/CC1(O)CC2CCC1C2 (stereo partly drawn) [TR 4883, Methyl 11α,16RS-dihydroxy-16,20-methano-17,20-methano-9-oxoprost-13E-en-1-oate] | 1 | – | – | –
5 | CCCC(C)C(O)C/C=C/[C@H]1[C@H](O)CC(=O)[C@@H]1CCCCCCCO (stereo partly drawn) [TR 4749, 1, 11α, 16RS-trihydroxy-17RS-methylprost-13E-en-9-one] | 0 | lower | lower | –
6 | COC(=O)CCCCCC[C@H]1C(=O)C[C@@H](O)[C@@H]1/C=C/CC1(O)CC2CCCCC21 (stereo partly drawn) [TR 4808, Methyl 11α, 16RS-dihydroxy-17, 20-ethano-16, 18-methano-9-oxoprost-13E-en-1-oate] | 0 | – | – | –
7 | CC1CCCC(O)(C/C=C/[C@H]2[C@H](O)CC(=O)[C@@H]2CCCCCCCO)C1 (stereo partly drawn) [TR 4851, 16, 20-Methano-18RS-methyl-1, 11α, 16RS-trihydroxyprost-13E-en-9-one] | 0 | – | – | –
8 | O=C1C[C@@H](O)[C@H](/C=C/CC2(O)CC3CCCC32)[C@H]1CCCCCCCO (stereo partly drawn) [TR 4799, 16, 18-Methano-17, 20-methano-1, 11α, 16RS-trihydroxyprost-13E-en-9-one] | 0 | – | – | –
9 | COC(=O)CCCCCC[C@H]1C(=O)C[C@@H](O)[C@@H]1/C=C/[C@H]1CCCC[C@@H]1O [TR 4767, Methyl 15R, 20-cyclo-11α, 16-trans-dihydro-9-oxoprost-13E-en-1-oate] | 0 | – | – | –
10 | CCCC(C)(C)C(O)C/C=C/[C@H]1[C@H](O)CC(=O)[C@@H]1CCCCCCCO (single isomer, unassigned) [TR 4752, 1, 11α, 16R or S-trihydroxy-17-dimethylprost-13E-en-9-one] | 0 | – | – | no GAS activity
11 | CCCCC(C)(O)C/C=C/[C@H]1[C@H](O)CC(=O)[C@@H]1CCCCCCCO (stereo partly drawn) [TR 4698, 16-methyl-1,11α,16RS-trihydroxyprost-13E-en-9-one] | 1 | the same | the same | –
12 | COC(=O)CCCCCC[C@H]1C(=O)C[C@@H](O)[C@@H]1/C=C/CC1(O)CC2C=CCC21 (stereo partly drawn) [TR 4800, Methyl 11α, 16RS-dihydroxy-16, 18-methano-17, 20-methano-9-oxoprosta-13E, 19-dien-1-oate] | 0 | – | – | –
13 | CCCC(C)C(O)C/C=C/[C@H]1[C@H](O)CC(=O)[C@@H]1CCCCCCC(=O)OC (stereo partly drawn) [TR 4814, Methyl 11α, 16RS-dihydroxy-17-methyl-9-oxoprost-13E-oate, reference compound] | 1 | – | – | –

Source: patent publication US4132738A, “Preparation of 15-deoxy-16-hydroxyprostaglandins” (Miles Laboratories, Inc., priority 1978, dated 1979)
